Assay [1] addresses HER2 (Homo sapiens, UniProt P04626). The experiment in a line: Inhibition of the activity of human growth factor receptor (HER2) tyrosine kinase. The format is biochemical. Set-up: the tyrosine kinase domain of the human HER2 gene was cloned; made in house; host or cells: insect cell line SF-21 (recombinant insect virus vector). The settings on record: HER2 receptor type tyrosine kinase; ELISA with HER3 substrate; read-out: Concentration of inhibiting HER2 (IC50). The source says: As enzyme standard, the tyrosine kinase domain of the human HER2 gene was cloned to prepare the recombinant gene of insect virus vector, with which the insect cell line SF-21 was infected to produce an enzyme protein (Guy P. M. et al., Journal of Biological Chemistry Vol. 267, pp.13851-13856, 1992). As substrate, the phosphorylated tyrosine domain of the HER3 protein was cloned to prepare the recombinant gene of plasmid vector with which Escherichia Coli strain JM109 was infected to give an enzyme protein (Sierke S. L. et al., Biochemistry Vol. 32, pp.10102-10108, 1993). The enzymatic reaction was performed by the enzyme-linked immunological method which consisted of fixing the substrate protein in wells of a 96-well microtiter plate, adding the enzyme into the wells and quantitating phosphorylated tyrosine, which was the reaction product, by use of the anti-phosphorylated tyrosine antibody (Cleaveland J. S. et al., Analytical Biochemistry Vol. 190, pp249-253, 1990).
(In general: ELISA stands for enzyme-linked immunosorbent assay.)

Assay [2] has as its system human breast cancer cell line, MDA-MB-453. The experiment in a line: In vivo mammary cancer inhibiting effect (1). Set-up: species or system female Balb/C strain athymic nude mice. The settings on record: for Tumor growth rate (%): oral, tumor volume vs control. As to the method: 5,000,000 cells of human breast cancer cell line, MDA-MB-453, were suspended in a gelmatrix solution. The suspension was subcutaneously implanted at the breast in 7-week-old female Balb/C strain athymic nude mice (Friedman R. et al., Proceedings of the National Academy of Sciences of the U.S.A. Vol. 87, pp.6698-6702, 1990). Twelve days after the implantation, the diameters of tumors were determined. For the experiment were used 5 mice per group with similar tumor size. Compound 8 of the present invention was suspended in a 5% gum arabic solution (physiologicalsaline) and administered orally twice daily in dose of 30 mg/kg body weight for 10 days, or 2 cycle oral administrations consisting of 45 mg/kg body weight twice daily for 3 days and no treatment for 3 days were performed. On the day when the dosing was ended, the diameters of tumors were measured. Tumor volume was calculated by the following formula: volume of tumor=longest diameter×shortest diameter×shortest diameter×1/2. The growth rate of tumors was obtained as the proportion to the volume of tumor in the control animals in which only the gum arabic solution was administered. The body weights of mice administered with Compound 8 of the present invention were measured during the experiment to observe no decrease.

The test system of assay [3] is BT-474. The experiment in a line: Selective in vitro inhibition of breast cancer cell growth. The format is cell-based. The settings on record: Homo sapiens, 72 h; Mammary cancer BT-474; 3 days; SRB; read-out: IC50, inhibition of cell proliferation. The protocol: (§1) 100 μl (containing 2,000 cells) of a cell suspension of various human breast cancer cell lines shown in [Table 6] was seeded in each well of the 96-well microtiter plates. The cells were incubated at 37° C. in a 5% carbon dioxide gas incubator. Next day, 100 μl of a 2 fold serial dilution of a compound solution was added to each well. The cultures were incubated for 3 days. The solution containing the compound was removed and the cells were washed with water. To the cells was added a 0.4% (V/W) dye SRB (dissolved in 1% acetic acid) solution to fix and stain the cell protein. The dye solution was removed and the fixed and stained cell protein was washed. The protein-bound dye was extracted with 200 μl of 10 mM Tris buffer. The optical density of the extracted dye was determined at the wavelength of 540 nm to estimate the quantity of the cells in terms of the protein quantity. Designating the protein quantity in the control to which no compound solution was added as 100%, the proportion of the residual protein quantity in each treated group was calculated, and IC50, which was the concentration of the compound required to inhibit the residual protein quantity to 50% the quantity of the control, was calculated.

The test system of assay [4] is MDA-MB-468. The description is as above. The assay is classed as cell-based. Conditions: Homo sapiens, 72 h; Mammary cancer MDA-MB-468; 3 days; SRB; read-out: IC50, inhibition of cell proliferation. The protocol: as §1
The subject of assay [5] is ASPC-1. Described as above. The assay is classed as cell-based. The settings on record: Homo sapiens, ASPC1, 72 h; Pancreatic cancer ASPC-1; 3 days; SRB; read-out: IC50, inhibition of cell proliferation. The protocol: as §1
Assay [6] has as its system BT-20. The assay is described as above. Conditions: Homo sapiens, 72 h; Mammary cancer BT-20; 3 days; SRB; read-out: IC50, inhibition of cell proliferation. The format is cell-based. As to the method:
as §1

In assay [7] the test system is T-47D. The description is as above. Conditions: Homo sapiens, T47D, 72 h; Mammary cancer T-47D; 3 days; SRB; read-out: IC50, inhibition of cell proliferation. The format is cell-based. As to the method:
as §1

Assay [8] relates to WiDr. The description is as above. The format is cell-based. The settings on record: Homo sapiens, 72 h; Large intestinal cancer WiDr; 3 days; SRB; read-out: IC50, inhibition of cell proliferation. The protocol:
as §1

In assay [9] the test system is MRC5. Described as above. The format is cell-based. The settings on record: Homo sapiens, 72 h; Normal MRC5; 3 days; SRB; read-out: IC50, inhibition of cell proliferation. As to the method:
as §1

Assay [10] concerns SKBR3. The assay is described as above. Conditions: Homo sapiens, SK-BR-3, 72 h; Mammary cancer SKBR3; 3 days; SRB; read-out: IC50, inhibition of cell proliferation. The assay is classed as cell-based. As to the method:
as §1

In assay [11] the test system is MDA-MB-453. Described as above. The assay is classed as cell-based. The settings on record: Homo sapiens, 72 h; Mammary cancer MDA-MB-453; 3 days; SRB; read-out: IC50, inhibition of cell proliferation. As to the method: as §1
For assay [12], the system named is HSC-1. The assay is described as above. The format is cell-based. Conditions: Homo sapiens, 72 h; Epidermal cancer HSC-1; 3 days; SRB; read-out: IC50, inhibition of cell proliferation. The protocol:
as §1

Sequence of HER2 (P04626 720-987 limits assumed): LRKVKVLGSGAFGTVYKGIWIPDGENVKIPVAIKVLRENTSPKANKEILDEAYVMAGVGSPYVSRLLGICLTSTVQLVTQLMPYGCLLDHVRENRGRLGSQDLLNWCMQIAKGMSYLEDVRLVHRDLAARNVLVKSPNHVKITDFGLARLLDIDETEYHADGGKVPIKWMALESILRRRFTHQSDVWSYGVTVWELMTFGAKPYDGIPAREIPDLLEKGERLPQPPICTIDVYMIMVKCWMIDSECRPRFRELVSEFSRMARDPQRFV

As for `C(=C\c1nc(COc2ccc(CCCn3ccnc3)cc2)co1)/c1ccccc1` [Compound 8, 4-[4-[3-(1-imidazolyl)propyl]phenoxymethyl]-2-[(E)-2-phenylethenyl]oxazole], the IC50 in assay [1] was 20 µM; in [3], 0.29 µM; in assay [4] it was 0.52 µM; in [5] it was 2.5 µM; in [6] it was 0.52 µM; in assay [7], 0.57 µM. Also, the IC50 in assay [8] was found to be 2.1 µM; in assay [9], 15 µM; in assay [10], 1 µM; in [11], 0.25 µM; in [12] it was 2.1 µM. The “Tumor growth rate (%)” value in assay [2] (60 mg/kg/day, 30 mg/kg twice daily for 10 days) is recorded as 71%; in [2] (90 mg/kg/day, 2 cycles of 45 mg/kg twice daily 3 days and 3 days off) it was 46%. For the same molecule, the “Inhibition of implanted tumor growth” value in assay [2] (MDA-MB-453, athymic nude mice) was “inhibited dose-dependently the growth of human breast cancer”.

These data come from patent US6211215A, “Heterocyclic compounds, their production and use” (Takeda Chemical Industries, Ltd., priority 1996, dated 2001).
